{"source": "patent US11753409B2", "about": "“Crystalline salts of a B-RAF kinase inhibitor” (Xynomic Pharmaceuticals, Inc., priority 2017, dated 2023)", "key": {"[1]": {"experiment": "Milling and compression stress followed by XRPD", "format": "physicochemical", "protocol": "FIG. 20 is a plot of the XRPD of N-(3-(5-((1-ethylpiperidin-4-yl)(methyl)amino)-3-(pyrimidin-5-yl)-1H-pyrrolo[3,2-b]pyridin-1-yl)-2,4-difluorophenyl)propane-1-sulfonamide monohydrochloride salt following milling in a swing mill for 10 min. at 30 rps.\nFIG. 21 is a plot of the XRPD of N-(3-(5-((1-ethylpiperidin-4-yl)(methyl)amino)-3-(pyrimidin-5-yl)-1H-pyrrolo[3,2-b]pyridin-1-yl)-2,4-difluorophenyl)propane-1-sulfonamide monohydrochloride salt following compression at 2000 N for 1 s to a tablet (diameter-5 mm).\nFIG. 31 is a plot of the XRPD of N-(3-(5-((1-ethylpiperidin-4-yl)(methyl)amino)-3-(pyrimidin-5-yl)-1H-pyrrolo[3,2-b]pyridin-1-yl)-2,4-difluorophenyl)propane-1-sulfonamide monosuccinate salt following milling in a swing mill for 10 min. at 30 rps.\nFIG. 32 is a plot of the XRPD of N-(3-(5-((1-ethylpiperidin-4-yl)(methyl)amino)-3-(pyrimidin-5-yl)-1H-pyrrolo[3,2-b]pyridin-1-yl)-2,4-difluorophenyl)propane-1-sulfonamide monosuccinate salt following compression at 2000 N for 1 s to a tablet (diameter-5 mm)."}, "[2]": {"experiment": "Intrinsic dissolution rate, rotating disc method", "format": "physicochemical", "protocol": "The intrinsic dissolution rate of 3-(5-((1-ethylpiperidin-4-yl)(methyl)amino)-3-(pyrimidin-5-yl)-1H-pyrrolo[3,2-b]pyridin-1-yl)-2,4-difluorophenyl)propane-1-sulfonamide salts was determined in aqueous media covering a range of pH 1.1-7.4 using the rotating disc method which maintains a constant surface area.\nThe drug substance (5 mg) was compressed at 356.1 Newtons for 60 s to form a disk. These disks were mounted to sample holders which fit into a miniaturized dissolution testing apparatus. The dissolution media were stirred at 200 rpm at a temperature of 37° C. Samples were automatically withdrawn every second minute from the dissolution vessel and assayed by UV spectrophotometry.\nThe intrinsic dissolution rate of N-(3-(5-((1-ethylpiperidin-4-yl)(methyl)amino)-3-(pyrimidin-5-yl)-TH-pyrrolo[3,2-b]pyridin-1-yl)-2,4-difluorophenyl)propane-1-sulfonamide monohydrochloride salt in various media was measured in media at various pH values.\nThe intrinsic dissolution rate of N-(3-(5-((1-ethylpiperidin-4-yl)(methyl)amino)-3-(pyrimidin-5-yl)-1H-pyrrolo[3,2-b]pyridin-1-yl)-2,4-difluorophenyl)propane-1-sulfonamide monosuccinate salt in various media was measured in media at various pH values."}, "[3]": {"experiment": "Intrinsic dissolution rate, rotating disc method", "format": "physicochemical", "details": "pH of medium 1.0 (0.1M HCl), 37° C."}, "[4]": {"experiment": "Equilibrium solubility in various aqueous media (solubility after 2 h)", "format": "physicochemical", "details": "thermodynamic from solid", "protocol": "Saturated solutions are prepared in well plates by adding an appropriate volume of selected aqueous media (typically in the range of 0.25-1.5 mL) into each well which contains a known quantity of solid drug substance (typically in the range 0.5-5.0 mg). The wells are shaken or stirred for a predefined time period (typically in a range of 2-24 h) and then filtered using appropriate filter membranes (typically PTFE-filters with 0.45 μm pore size). Filter absorption is avoided by discarding the first few drops of filtrate. The amount of dissolved drug substance is determined by UV spectroscopy. In addition, the pH of the aqueous saturated solution is measured using a glass-electrode pH meter.\nThe equilibrium solubility of N-(3-(5-((1-Ethylpiperidin-4-yl)(methyl)amino)-3-(pyrimidin-5-yl)-1H-pyrrolo[3,2-b]pyridin-1-yl)-2,4-difluorophenyl)propane-1-sulfonamide monohydrochloride salt in various media was determined.\nThe solubility of N-(3-(5-((1-Ethylpiperidin-4-yl)(methyl)amino)-3-(pyrimidin-5-yl)-1H-pyrrolo[3,2-b]pyridin-1-yl)-2,4-difluorophenyl)propane-1-sulfonamide monosuccinate salt in various media was determined."}, "[5]": {"experiment": "Sorption-desorption (DVS) of the salts with XRPD before and after", "format": "physicochemical", "protocol": "Dynamic Vapor Sorption (DVS) was performed in a IGAsorp Water Sorption Analyzer from Hiden Isochema. Adsorption and desorption isotherms were performed at 25° C. with 10% RH step intervals ranging from 0% relative humidity up to 90% relative humidity."}, "[6]": {"experiment": "Pharmacokinetics following oral administration to rats", "format": "in vivo, HsdHan:WIST Norway rats", "details": "rat; for AUD: AUD range 0-6 h; for concentration at 24 h: mean n = 3, read-out: Blood Plasma Concentrations", "protocol": "The pharmacokinetics of N-(3-(5-((1-ethylpiperidin-4-yl)(methyl)amino)-3-(pyrimidin-5-yl)-1H-pyrrolo[3,2-b]pyridin-1-yl)-2,4-difluorophenyl)propane-1-sulfonamide hydrochloride salt and N-(3-(5-((1-ethylpiperidin-4-yl)(methyl)amino)-3-(pyrimidin-5-yl)-1H-pyrrolo[3,2-b]pyridin-1-yl)-2,4-difluorophenyl)propane-1-sulfonamide […] following oral administration at 40 mg and 80 mg (dose calculated as the free base) to HsdHan:WIST Norway rats. Each salt was administered to 3 animals."}, "[7]": {"details": "HsdHan:WIST, plasma, 40 mg/kg oral"}}, "note": "Read-outs that look alike come from different tables or passages of the source.", "data": [{"smiles": "CCCS(=O)(=O)Nc1ccc(F)c(-n2cc(-c3cncnc3)c3nc(N(C)C4CCN(CC)CC4)ccc32)c1F.Cl", "note": "[Monohydrochloride Salt, N-(3-(5-((1-Ethylpiperidin-4-yl)(methyl)amino)-3-(pyrimidin-5-yl)-1H-pyrrolo[3,2-b]pyridin-1-yl)-2,4-difluorophenyl)propane-1-sulfonamide monohydrochloride salt]", "values": [{"measurement": "Crystallinity and polymorphic form after compression (XRPD)", "setting": "[1]; 2000 N for 1 s to a tablet (diameter 5 mm)", "result": "slight decrease in crystallinity but no change in polymorphic form"}, {"measurement": "Crystallinity and polymorphic form after milling (XRPD)", "setting": "[1]; swing mill for 10 min. at 30 rps", "result": "significant decrease in crystallinity but no change in polymorphic form"}, {"measurement": "Intrinsic Dissolution Rate", "setting": "[2]; pH of medium 2.2, 37° C.", "result": 121, "unit": "μg/cm^2/min."}, {"measurement": "Intrinsic Dissolution Rate", "setting": "[2]; pH of medium 3.0, 37° C.", "result": 80, "unit": "μg/cm^2/min."}, {"measurement": "Intrinsic Dissolution Rate", "setting": "[2]; pH of medium 4.5, 37° C.", "result": 38, "unit": "μg/cm^2/min."}, {"measurement": "Intrinsic Dissolution Rate", "setting": "[2]; pH of medium 6.8, 37° C.", "result": 15, "unit": "μg/cm^2/min."}, {"measurement": "Intrinsic Dissolution Rate", "setting": "[2]; pH of medium 7.4, 37° C.", "result": 3, "unit": "μg/cm^2/min."}, {"measurement": "Intrinsic Dissolution Rate", "setting": "[3]", "result": 4, "unit": "μg/cm^2/min."}, {"measurement": "solubility at 2 h", "setting": "[4]; 0.01 M HCl, simulated gastric fluid, HCl (0.01M)", "result": 20, "unit": "µg/mL"}, {"measurement": "solubility at 2 h", "setting": "[4]; 0.1 M HCl, simulated gastric fluid, HCl (0.1M)", "result": 60, "unit": "µg/mL"}, {"measurement": "solubility at 2 h", "setting": "[4]; aqueous buffer, 0.1M Citric acid", "result": 400, "unit": "µg/mL"}, {"measurement": "solubility at 2 h", "setting": "[4]; aqueous buffer, 0.1M NaOH", "result": "> 10000", "unit": "µg/mL"}, {"measurement": "solubility at 2 h", "setting": "[4]; aqueous buffer, Acetate Buffer (pH 5.0)", "result": 200, "unit": "µg/mL"}, {"measurement": "solubility at 2 h", "setting": "[4]; aqueous buffer, McIlvaine Buffer (pH 2.2)", "result": 400, "unit": "µg/mL"}, {"measurement": "solubility at 2 h", "setting": "[4]; aqueous buffer, McIlvaine Buffer (pH 3.0)", "result": 200, "unit": "µg/mL"}, {"measurement": "solubility at 2 h", "setting": "[4]; aqueous buffer, McIlvaine Buffer (pH 4.0)", "result": 100, "unit": "µg/mL"}, {"measurement": "solubility at 2 h", "setting": "[4]; aqueous buffer, McIlvaine Buffer (pH 4.5)", "result": 200, "unit": "µg/mL"}, {"measurement": "solubility at 2 h", "setting": "[4]; aqueous buffer, McIlvaine Buffer (pH 5.0)", "result": 200, "unit": "µg/mL"}, {"measurement": "solubility at 2 h", "setting": "[4]; aqueous buffer, McIlvaine Buffer (pH 6.0)", "result": 100, "unit": "µg/mL"}, {"measurement": "solubility at 2 h", "setting": "[4]; aqueous buffer, McIlvaine Buffer (pH 6.8)", "result": 100, "unit": "µg/mL"}, {"measurement": "solubility at 2 h", "setting": "[4]; aqueous buffer, McIlvaine Buffer (pH 7.4)", "result": 10, "unit": "µg/mL"}, {"measurement": "solubility at 2 h", "setting": "[4]; aqueous buffer, Phosphate Buffer (pH 6.8)", "result": 200, "unit": "µg/mL"}, {"measurement": "solubility at 2 h", "setting": "[4]; aqueous buffer, Sorensen Buffer (pH 9.0)", "result": 10, "unit": "µg/mL"}, {"measurement": "solubility at 2 h", "setting": "[4]; aqueous buffer, Sorensen Buffer (pH 11)", "result": 700, "unit": "µg/mL"}, {"measurement": "solubility at 2 h", "setting": "[4]; Simulated intestinal fluid (FaSSIF)", "result": 2, "unit": "µg/mL"}, {"measurement": "solubility at 2 h", "setting": "[4]; Simulated intestinal fluid (FeSSIF)", "result": 30, "unit": "µg/mL"}, {"measurement": "solubility at 2 h", "setting": "[4]; water", "result": 100, "unit": "µg/mL"}, {"measurement": "Change in structure (XRPD) after sorption-desorption experiment", "setting": "[5]; XRPD before and after", "result": "no significant change in structure occurred"}, {"measurement": "Reversible weight gain (isotherm sorption-desorption)", "setting": "[5]; range from 0-80% relative humidity", "result": "approximately 2.5%"}, {"measurement": "Reversible weight gain (isotherm sorption-desorption)", "setting": "[5]; range from 0-90% relative humidity", "result": "approximately 400%"}, {"measurement": "Weight gain (sorption-desorption)", "setting": "[5]; range from 10-90% relative humidity, scale-up sample", "result": "approximately 2.4%"}, {"measurement": "AUD", "setting": "[6]; 40 mg/kg oral", "result": 0.312, "unit": "µM·h"}, {"measurement": "AUD", "setting": "[6]; 80 mg/kg oral", "result": 1.04, "unit": "µM·h"}, {"measurement": "Cmax", "setting": "[6]; HsdHan:WIST, in vivo, 80 mg/kg oral", "result": 419, "unit": "nM"}, {"measurement": "bioavailability", "setting": "[6]; HsdHan:WIST, plasma, po, 40 mg/kg dose", "result": 1, "unit": "%"}, {"measurement": "Cmax", "setting": "[6]; [7]", "result": 123, "unit": "nM"}, {"measurement": "Tmax", "setting": "[6]; [7]", "result": 3.3, "unit": "h"}, {"measurement": "Tmax", "setting": "[6]; HsdHan:WIST, plasma, 80 mg/kg oral", "result": 4, "unit": "h"}, {"measurement": "concentration at 24 h", "setting": "[6]; Time 0.5, 40 mg/kg oral", "result": 3.53, "unit": "nM"}, {"measurement": "concentration at 24 h", "setting": "[6]; Time 1.0, 40 mg/kg oral", "result": 6.56, "unit": "nM"}, {"measurement": "concentration at 24 h", "setting": "[6]; Time 1.0, 80 mg/kg oral", "result": 3.69, "unit": "nM"}, {"measurement": "concentration at 24 h", "setting": "[6]; Time 2.0, 40 mg/kg oral", "result": 107, "unit": "nM"}, {"measurement": "concentration at 24 h", "setting": "[6]; Time 2.0, 80 mg/kg oral", "result": 69.9, "unit": "nM"}, {"measurement": "concentration at 24 h", "setting": "[6]; Time 4.0, 40 mg/kg oral", "result": 60.9, "unit": "nM"}, {"measurement": "concentration at 24 h", "setting": "[6]; Time 4.0, 80 mg/kg oral", "result": 419, "unit": "nM"}, {"measurement": "concentration at 24 h", "setting": "[6]; Time 6.0, 40 mg/kg oral", "result": 13.3, "unit": "nM"}, {"measurement": "concentration at 24 h", "setting": "[6]; Time 6.0, 80 mg/kg oral", "result": 69, "unit": "nM"}]}]}
